Measurements taken from patent publication US20030186967A1, “Acylresorcinol derivatives are selective vitronectin receptor inhibitors” (American Home Products Corporation, priority 1998, published 2003).

target: T1, Vitronectin receptor αVβ3 (Homo sapiens, UniProt P05106+P06756); assay: Vitronectin Receptor αVβ3 Binding Assay; conditions: read-out: VnR (IC50μM)
T1 construct: expressed in transfected cells; host or cells: 512P5 cells (plasma membrane preparation)
T1 sequence (P06756 31-889 limits assumed): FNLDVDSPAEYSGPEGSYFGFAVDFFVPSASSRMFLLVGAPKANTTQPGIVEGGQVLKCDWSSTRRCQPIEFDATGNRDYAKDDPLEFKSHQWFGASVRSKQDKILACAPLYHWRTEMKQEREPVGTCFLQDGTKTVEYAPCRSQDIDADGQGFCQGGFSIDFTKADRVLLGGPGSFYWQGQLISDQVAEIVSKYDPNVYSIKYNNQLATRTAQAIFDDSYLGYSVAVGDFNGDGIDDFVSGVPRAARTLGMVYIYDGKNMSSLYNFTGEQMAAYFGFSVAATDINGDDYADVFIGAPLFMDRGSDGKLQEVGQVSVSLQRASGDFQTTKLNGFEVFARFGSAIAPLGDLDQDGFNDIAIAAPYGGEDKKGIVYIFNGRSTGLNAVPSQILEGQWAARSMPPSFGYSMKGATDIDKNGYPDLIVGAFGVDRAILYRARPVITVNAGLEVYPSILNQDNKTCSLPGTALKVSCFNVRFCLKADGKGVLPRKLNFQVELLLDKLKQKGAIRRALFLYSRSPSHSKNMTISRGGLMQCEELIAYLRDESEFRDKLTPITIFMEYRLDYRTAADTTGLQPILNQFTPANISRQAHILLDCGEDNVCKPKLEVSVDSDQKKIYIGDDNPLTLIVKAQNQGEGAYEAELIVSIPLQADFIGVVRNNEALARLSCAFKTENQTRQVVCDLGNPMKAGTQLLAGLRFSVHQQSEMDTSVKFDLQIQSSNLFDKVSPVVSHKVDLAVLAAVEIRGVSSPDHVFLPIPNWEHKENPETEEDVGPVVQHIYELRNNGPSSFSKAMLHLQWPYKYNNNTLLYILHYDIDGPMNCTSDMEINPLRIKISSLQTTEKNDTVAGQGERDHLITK
T1 sequence (P06756 891-1048 partner limits assumed): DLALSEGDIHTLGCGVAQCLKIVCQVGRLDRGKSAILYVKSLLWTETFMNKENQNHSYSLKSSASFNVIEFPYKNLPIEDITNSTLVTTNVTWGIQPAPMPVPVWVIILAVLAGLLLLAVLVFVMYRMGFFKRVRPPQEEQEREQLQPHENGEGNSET
T1 sequence (P05106 27-788): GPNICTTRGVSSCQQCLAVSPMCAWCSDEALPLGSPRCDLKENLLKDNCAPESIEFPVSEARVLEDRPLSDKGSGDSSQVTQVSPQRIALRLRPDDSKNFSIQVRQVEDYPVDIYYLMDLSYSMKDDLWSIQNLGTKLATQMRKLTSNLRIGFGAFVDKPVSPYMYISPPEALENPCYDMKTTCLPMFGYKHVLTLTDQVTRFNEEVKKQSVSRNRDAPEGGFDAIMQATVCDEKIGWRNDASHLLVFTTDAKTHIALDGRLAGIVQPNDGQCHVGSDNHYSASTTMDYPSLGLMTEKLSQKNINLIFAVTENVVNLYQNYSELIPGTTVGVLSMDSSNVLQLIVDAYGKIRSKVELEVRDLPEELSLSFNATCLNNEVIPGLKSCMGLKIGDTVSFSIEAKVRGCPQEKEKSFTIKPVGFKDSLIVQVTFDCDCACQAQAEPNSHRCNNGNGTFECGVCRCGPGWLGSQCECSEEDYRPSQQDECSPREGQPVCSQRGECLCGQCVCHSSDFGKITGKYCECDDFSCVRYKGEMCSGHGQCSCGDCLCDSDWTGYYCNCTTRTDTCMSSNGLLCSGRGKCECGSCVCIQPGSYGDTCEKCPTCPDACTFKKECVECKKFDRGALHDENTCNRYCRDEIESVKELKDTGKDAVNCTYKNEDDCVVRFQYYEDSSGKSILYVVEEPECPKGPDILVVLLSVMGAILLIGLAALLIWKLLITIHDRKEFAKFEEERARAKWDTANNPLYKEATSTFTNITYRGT

IC50	SMILES
123 µM	CCOC(=O)CC(NC(=O)c1ccc(OCCNC2=NCCCN2)cc1O)c1cccnc1 (stereo not shown) [Example 283, 3-[2-Hydroxy-4-[2-(3,4,5,6-tetrahydropyrimidin-2-ylamino)ethoxy]benzoylamino]-3-pyridin-3-ylpropionic acid ethyl ester dihydrocloride]
0.97 µM	CCCOC(=O)N[C@@H](CNC(=O)c1ccc(OCCNC(=N)N)cc1O)C(=O)O [Example 160, (2S)-3-{[4-(2-{[amino(imino)methyl]amino}ethoxy)-2-hydroxybenzoyl]amino}-2-[(propoxycarbonyl)amino]propanoic acid]
29.6 µM	O=C(NCCOc1ccc(C(=O)NC[C@H](NC(=O)OCc2ccccc2)C(=O)O)c(O)c1)NCc1ccc(OC(F)(F)F)cc1 [Example 266, (2S)-2-{[(benzyloxy)carbonyl]amino}-3-[(2-hydroxy-4-{2-[({[4-(trifluoromethoxy)-benzyl]amino}carbonyl)amino]ethoxy}benzoyl)amino]propanoic acid]
22.8 µM	COC(=O)N[C@@H](CNC(=O)c1ccc(OCCNC(=O)NCc2ccccc2)cc1O)C(=O)O [Example 221, (2S)-3-{[4-(2-{[(benzylamino)carbonyl]amino}ethoxy)-2-hydroxybenzoyl]amino}-2-[(methoxycarbonyl)amino]propanoic acid]
3.3 µM	O=C(NCCOc1ccc(C(=O)NC[C@H](NC(=O)OCc2ccccc2)C(=O)O)c(O)c1)NCc1cccnc1 [Example 233]
21.7 µM	O=C(NCCOc1ccc(C(=O)NC[C@H](NC(=O)OCc2ccccc2)C(=O)O)c(O)c1)NCc1ccc(Cl)cc1Cl [Example 270, (2S)-2-{[(benzyloxy)carbonyl]amino}-3-({4-[2-({[(2,4-dichlorobenzyl)amino]-carbonyl}amino)ethoxy]-2-hydroxybenzoyl}amino)propanoic acid]
13.1 µM	N=C(N)NCCOc1ccc(C(=O)NC[C@H](NC(=O)c2ccccc2Br)C(=O)O)c(O)c1 [Example 212, (2S)-3-{[4-(2-{[amino(imino)methyl]amino}ethoxy)-2-hydroxybenzoyl]amino-}-2-[(2-bromobenzoyl)amino]propanoic acid]
2.1 µM	C=CCCOC(=O)N[C@@H](CNC(=O)c1ccc(OCCNC(=O)NCc2cccnc2)cc1O)C(=O)O [Example 239, (2S)-2-{[(but-3-enyloxy)carbonyl]amino}-3-({2-hydroxy-4-[2-({[(pyridin-3-ylmethyl)amino]carbonyl}amino)ethoxy]benzoyl}amino)propanoic acid]
19.5 µM	CCCCCCCCNC(=O)N[C@@H](CNC(=O)c1ccc(OCCNC(=N)N)cc1O)C(=O)O [Example 187, (2S)-3-{[4-(2-{[amino(imino)methyl]amino}ethoxy)-2-hydroxybenzoyl]amino}-2-{[(octylamino)carbonyl]amino}propanoic acid]
21.2 µM	O=C(NCCOc1ccc(C(=O)NC[C@H](NC(=O)OCc2ccccc2)C(=O)O)c(O)c1)NCc1ccccc1Br [Example 269, (2S)-2-{[(benzyloxy)carbonyl]amino}-3-({4-[2-({[(2-bromobenzyl)amino]-carbonyl}-amino)ethoxy]-2-hydroxybenzoyl}amino)propanoic acid]
0.9 µM	CC(C)OC(=O)N[C@@H](CNC(=O)c1ccc(OCCNC(=N)N)cc1O)C(=O)O [Example 161, (2S)-3-{[4-(2-{[amino(imino)methyl]amino}ethoxy)-2-hydroxybenzoyl]amino}-2-[(isopropoxycarbonyl)amino]propanoic acid]
> 1 µM	CC(C)(C)CC(=O)N[C@@H](CNC(=O)c1ccc(OCCNC(=N)N)cc1O)C(=O)O [Example 194]
40.9 µM	CC(=O)c1ccc(NC(=O)N[C@@H](CNC(=O)c2ccc(OCCNC(=N)N)cc2O)C(=O)O)cc1 [Example 182, (2S)-2-{[(4-acetylanilino)carbonyl]amino}-3-{[4-(2-{[amino(imino)methyl]-amino}ethoxy)-2-hydroxybenzoyl]amino}propanoic acid]
1.9 µM	CCCOC(=O)N[C@@H](CNC(=O)c1ccc(OCCNC(=O)NCc2cccnc2)cc1O)C(=O)O [Example 236]
6.99 µM	N=C(N)NCCOc1ccc(C(=O)NC[C@H](NC(=O)NCCc2ccccc2)C(=O)O)c(O)c1 [Example 186]
12.6 µM	COc1ccc(CNC(=O)NCCOc2ccc(C(=O)NC[C@H](NC(=O)OCc3ccccc3)C(=O)O)c(O)c2)cc1 [Example 262, (2S)-2-{[(benzyloxy)carbonyl]amino}-3-({2-hydroxy-4-[2-({[(4-methoxybenzyl)-amino]carbonyl}amino)ethoxy]benzoyl}amino)propanoic acid]

Second part, the compound before the results:

SMILES	IC50
O=C(NC[C@H](NC(=O)c1ccccc1Cl)C(=O)O)c1ccc(OCCNC2=NCCN2)cc1O [Example 131, (2S)-2-[(2-chlorobenzoyl)amino]-3-({4-[2-(4,5-dihydro-1H-imidazol-2-ylamino)ethoxy]-2-hydroxybenzoyl}amino)propanoic acid]	0.405 µM
Cc1ccc(NC(=O)N[C@@H](CNC(=O)c2ccc(OCCNc3ncccn3)cc2O)C(=O)O)cc1 [Example 83, (2S)-3-({2-hydroxy-4-[2-(pyrimidin-2-ylamino)ethoxy]benzoyl}amino)-2-[(4-toluidinocarbonyl)amino]propanoic acid]	> 1 µM
CCCCOC(=O)N[C@@H](CNC(=O)c1ccc(OCCNC2=NCCN2)cc1O)C(=O)O [Example 106, (2S)-2-[(butoxycarbonyl)amino]-3-({4-[2-(4,5-dihydro-1H-imidazol-2-ylamino)ethoxy]-2-hydroxybenzoyl}amino)propanoic acid]	0.114 µM
CCCCOC(=O)N[C@@H](CNC(=O)c1ccc(OCCNc2ncccn2)cc1O)C(=O)O [Example 59, (2S)-2-[(butoxycarbonyl)amino]-3-({2-hydroxy-4-[2-(pyrimidin-2-ylamino)ethoxy]benzoyl}amino)propanoic acid]	100 µM
CC(C)OC(=O)N[C@@H](CNC(=O)c1ccc(OCCNc2ncccn2)cc1O)C(=O)O [Example 68, (2S)-3-({2-hydroxy-4-[2-(pyrimidin-2-ylamino)ethoxy]benzoyl}amino)-2-[(isopropoxycarbonyl)amino]propanoic acid]	100 µM
COc1ccc(C(=O)N[C@@H](CNC(=O)c2ccc(OCCNC3=NCCN3)cc2O)C(=O)O)cc1 [Example 136, (2S)-3-({4-[2-(4,5-dihydro-1H-imidazol-2-ylamino)ethoxy]-2-hydroxybenzoyl}-amino)-2-[(4-methoxybenzoyl)amino]propanoic acid]	> 1 µM
CC(C)COC(=O)N[C@@H](CNC(=O)c1ccc(OCCNC(=O)NCc2ccccc2)cc1O)C(=O)O [Example 232, (2S)-3-{[4-(2-{[(benzylamino)carbonyl]amino}ethoxy)-2-hydroxybenzoyl]amino}-2-[(isobutoxycarbonyl)amino]propanoic acid]	3.7 µM
CC(C)C(=O)N[C@@H](CNC(=O)c1ccc(OCCNC2=NCCN2)cc1O)C(=O)O [Example 118, (2S)-3-({4-[2-(4,5-dihydro-1H-imidazol-2-ylamino)ethoxy]-2-hydroxybenzoyl}-amino)-2-(isobutyrylamino)propanoic acid]	> 1 µM
CC(C)(C)COC(=O)N[C@@H](CNC(=O)c1ccc(OCCNc2ncccn2)cc1O)C(=O)O [Example 53, (2S)-3-({2-hydroxy-4-[2-(pyrimidin-2-ylamino)ethoxy]benzoyl}-amino)-2-{[(neopentyloxy)carbonyl]amino}propanoic acid]	34 µM
O=C(NC[C@H](NC(=O)C1CCCCC1)C(=O)O)c1ccc(OCCNC2=NCCN2)cc1O [Example 126, (2S)-2-[(cyclohexylcarbonyl)amino]-3-({4-[2-(4,5-dihydro-1H-imidazol-2-ylamino)ethoxy]-2-hydroxybenzoyl}amino)propanoic acid]	> 1 µM
CCCOC(=O)N[C@@H](CNC(=O)c1ccc(OCCNC2=NCCCN2)cc1O)C(=O)O [Example 4, (2S)-3-({2-hydroxy-4-[2-(1,4,5,6-tetrahydropyrimidin-2-ylamino)ethoxy]benzoyl}-amino)-2-[(propoxycarbonyl)amino]propanoic acid]	0.095 µM
CCCOC(=O)N[C@@H](CNC(=O)c1ccc(OCCNc2ncccn2)cc1O)C(=O)O [Example 67, (2S)-3-({2-hydroxy-4-[2-(pyrimidin-2-ylamino)ethoxy]benzoyl}amino)-2-[(propoxycarbonyl)amino]propanoic acid]	100 µM
O=C(NC[C@H](NC(=O)c1ccccc1Br)C(=O)O)c1ccc(OCCNC2=NCCN2)cc1O [Example 138]	0.361 µM
CCCOC(=O)N[C@@H](CNC(=O)c1ccc(OCCNC2=NCCN2)cc1O)C(=O)O [Example 99, (2S)-3-({4-[2-(4,5-dihydro-1H-imidazol-2-ylamino)ethoxy]-2-hydroxybenzoyl}-amino)-2-[(propoxycarbonyl)amino]propanoic acid]	0.088 µM
O=C(N[C@@H](CNC(=O)c1ccc(OCCNC2=NCCN2)cc1O)C(=O)O)c1cccc(Cl)c1 [Example 141, (2S)-2-[(3-chlorobenzoyl)amino]-3-({4-[2-(4,5-dihydro-1H-imidazol-2-ylamino)-ethoxy]-2-hydroxybenzoyl}amino)propanoic acid]	> 1 µM
O=C(Nc1ccccc1Cl)N[C@@H](CNC(=O)c1ccc(OCCNc2ncccn2)cc1O)C(=O)O [Example 80, (2S)-2-{[(2-chloroanilino)carbonyl]amino}-3-({2-hydroxy-4-[2-(pyrimidin-2-ylamino)ethoxy]benzoyl}amino)propanoic acid]	> 1 µM
C=CCNC(=O)N[C@@H](CNC(=O)c1ccc(OCCNC2=NCCN2)cc1O)C(=O)O [Example 111, (2S)-2-{[(allylamino)carbonyl]amino}-3-({4-[2-(4,5-dihydro-1H-imidazol-2-ylamino)ethoxy]-2-hydroxybenzoyl}amino)propanoic acid]	0.856 µM
CCCCCCCCOC(=O)N[C@@H](CNC(=O)c1ccc(OCCNC2=NCCN2)cc1O)C(=O)O [Example 105, (2S)-3-({4-[2-(4,5-dihydro-1H-imidazol-2-ylamino)ethoxy]-2-hydroxybenzoyl}-amino)-2-{[(octyloxy)carbonyl]amino}propanoic acid]	0.135 µM
